Laboratory results as given in ChEMBL document CHEMBL3259648, “Synthesis and in vitro evaluation of anti-inflammatory activity of ester and amine derivatives of indoline in RAW 264.7 and peritoneal macrophages” (Bioorg Med Chem Lett, 2014).
Activity calls are given as the source filed them. No cut-off for these calls is given here.

What was measured:
RAW264.7 [1] = test: Antiinflammatory activity in mouse RAW264.7 cells assessed as reduction in LPS-induced NaNO2 release at >=1 nM treated for 30 mins prior to LPS challenge measured after 24 hrs by griess reaction assay; type: functional, cell-based
RAW264.7 [2] = test: Antiinflammatory activity in mouse RAW264.7 cells assessed as reduction in LPS-induced NaNO2 release at 1 nM treated for 30 mins prior to LPS challenge measured after 24 hrs by griess reaction assay relative to budesonide; type: functional
RAW264.7 [3] = test: Antiinflammatory activity in mouse RAW264.7 cells assessed as reduction in LPS-induced NaNO2 release at 1 nM treated for 30 mins prior to LPS challenge measured after 24 hrs by griess reaction assay relative to melatonin; type: functional
[4] = tested on: Peritoneal macrophage cell; test: Antiinflammatory activity in C57bl/6 mouse peritoneal macrophages assessed as reduction in LPS-induced TNF-alpha production at >=1 pM treated for 30 mins prior to LPS challenge measured after 6 hrs by ELISA; type: functional, cell-based
[5] = tested on: Peritoneal macrophage cell; test: Antiinflammatory activity in C57bl/6 mouse peritoneal macrophages assessed as reduction in LPS-induced IL-6 production at >=10 pM treated for 30 mins prior to LPS challenge measured after 24 hrs by ELISA; type: functional, cell-based
RAW264.7 [6] = test: Cytotoxicity against mouse RAW264.7 cells assessed as cell viability at 10 pM to 10 uM by MTT assay; type: cell-based
[7] = Cytotoxicity against C57bl/6 mouse peritoneal macrophages assessed as cell viability at 10 pM to 10 uM by MTT assay; type: cell-based; conditions: peritoneal macrophage cell
Acetylcholinesterase = target: T1, Acetylcholinesterase (Bos taurus, UniProt P23795); test: Inhibition of AChE in bovine erythrocytes using acetylthiocholine iodide as substrate by Ellman's method
T1 sequence (P23795 whole entry): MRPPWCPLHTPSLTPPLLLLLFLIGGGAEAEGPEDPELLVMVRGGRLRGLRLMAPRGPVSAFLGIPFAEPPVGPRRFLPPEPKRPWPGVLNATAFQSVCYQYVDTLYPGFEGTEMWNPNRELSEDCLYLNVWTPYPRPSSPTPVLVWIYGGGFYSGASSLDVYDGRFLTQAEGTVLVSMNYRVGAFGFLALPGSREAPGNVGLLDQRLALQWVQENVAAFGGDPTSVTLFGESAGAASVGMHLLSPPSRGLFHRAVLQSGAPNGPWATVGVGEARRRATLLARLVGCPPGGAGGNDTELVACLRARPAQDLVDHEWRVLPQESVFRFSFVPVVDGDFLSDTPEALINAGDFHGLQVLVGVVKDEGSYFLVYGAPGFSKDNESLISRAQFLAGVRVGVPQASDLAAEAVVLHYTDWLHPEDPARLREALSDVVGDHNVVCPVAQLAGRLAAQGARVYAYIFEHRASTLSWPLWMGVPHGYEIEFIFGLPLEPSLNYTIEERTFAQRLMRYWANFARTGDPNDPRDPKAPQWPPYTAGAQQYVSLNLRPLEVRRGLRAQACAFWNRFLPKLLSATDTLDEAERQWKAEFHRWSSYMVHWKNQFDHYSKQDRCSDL

Cholinesterase = Cholinesterase (Equus caballus, UniProt P81908); test: Inhibition of BuChE in equine serum using butylthiocholine iodide as substrate by Ellman's method
Cholinesterase, sequence (P81908 whole entry): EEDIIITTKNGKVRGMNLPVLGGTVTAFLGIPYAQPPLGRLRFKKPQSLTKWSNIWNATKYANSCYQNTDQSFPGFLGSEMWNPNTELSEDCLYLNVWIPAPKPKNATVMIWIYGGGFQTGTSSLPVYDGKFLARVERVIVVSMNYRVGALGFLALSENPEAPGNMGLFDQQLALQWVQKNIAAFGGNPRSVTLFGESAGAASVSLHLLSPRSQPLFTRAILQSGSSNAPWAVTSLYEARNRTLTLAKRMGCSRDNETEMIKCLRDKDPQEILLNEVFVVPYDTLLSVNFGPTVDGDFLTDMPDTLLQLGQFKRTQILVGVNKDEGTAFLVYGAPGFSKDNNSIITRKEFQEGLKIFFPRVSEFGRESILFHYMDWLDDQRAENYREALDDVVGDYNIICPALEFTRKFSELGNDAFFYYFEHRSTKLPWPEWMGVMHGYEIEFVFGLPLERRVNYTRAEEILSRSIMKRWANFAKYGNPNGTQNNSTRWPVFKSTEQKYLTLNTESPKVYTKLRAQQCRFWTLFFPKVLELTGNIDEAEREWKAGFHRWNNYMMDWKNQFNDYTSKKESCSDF

[8] = tested on: Peritoneal macrophage cell; test: Antiinflammatory activity in C57bl/6 mouse peritoneal macrophages assessed as reduction in LPS-induced TNF-alpha production at >=10 pM treated for 30 mins prior to LPS challenge measured after 6 hrs by ELISA; type: functional, cell-based
[9] = tested on: Peritoneal macrophage cell; test: Antiinflammatory activity in C57bl/6 mouse peritoneal macrophages assessed as reduction in LPS-induced IL-6 production at >=10 nM treated for 30 mins prior to LPS challenge measured after 24 hrs by ELISA; type: functional, cell-based
RAW264.7 [10] = test: Antiinflammatory activity in mouse RAW264.7 cells assessed as reduction in LPS-induced NaNO2 release at >=10 pM treated for 30 mins prior to LPS challenge measured after 24 hrs by griess reaction assay; type: functional, cell-based
RAW264.7 [11] = test: Antiinflammatory activity in mouse RAW264.7 cells assessed as reduction in LPS-induced NaNO2 release at 10 pM treated for 30 mins prior to LPS challenge measured after 24 hrs by griess reaction assay relative to budesonide; type: functional
RAW264.7 [12] = test: Antiinflammatory activity in mouse RAW264.7 cells assessed as reduction in LPS-induced NaNO2 release at 10 pM treated for 30 mins prior to LPS challenge measured after 24 hrs by griess reaction assay relative to melatonin; type: functional
[13] = tested on: Peritoneal macrophage cell; test: Antiinflammatory activity in C57bl/6 mouse peritoneal macrophages assessed as reduction in LPS-induced IL-6 production at >=1 nM treated for 30 mins prior to LPS challenge measured after 24 hrs by ELISA; type: functional, cell-based
[14] = tested on: Peritoneal macrophage cell; test: Antiinflammatory activity in C57bl/6 mouse peritoneal macrophages assessed as reduction in LPS-induced TNF-alpha production at >=10 nM treated for 30 mins prior to LPS challenge measured after 6 hrs by ELISA; type: functional, cell-based
[15] = target: MAP kinase p38 (Mus musculus) (UniProt P47811+O08911+Q9WUI1+Q9Z1B7); test: Inhibition of p38 phosphorylation in LPS-activated C57bl/6 mouse peritoneal macrophages at 0.1 nM treated for 30 mins prior to LPS challenge by immunoblot analysis
Mus musculus [16] = organism: Mus musculus; test: Inhibition of ERK phosphorylation in LPS-activated C57bl/6 mouse peritoneal macrophages at 0.1 nM treated for 30 mins prior to LPS challenge by immunoblot analysis
Mus musculus [17] = organism: Mus musculus; test: Inhibition of JNK phosphorylation in LPS-activated C57bl/6 mouse peritoneal macrophages at 0.1 nM treated for 30 mins prior to LPS challenge by immunoblot analysis
[18] = target: T2, Inhibitor of nuclear factor kappa-B kinase subunit alpha (Mus musculus) (UniProt Q60680); test: Inhibition of IkappaB alpha degradation in LPS-activated C57bl/6 mouse peritoneal macrophages at 0.1 nM treated for 30 mins prior to LPS challenge by immunoblot analysis
T2 sequence (whole entry): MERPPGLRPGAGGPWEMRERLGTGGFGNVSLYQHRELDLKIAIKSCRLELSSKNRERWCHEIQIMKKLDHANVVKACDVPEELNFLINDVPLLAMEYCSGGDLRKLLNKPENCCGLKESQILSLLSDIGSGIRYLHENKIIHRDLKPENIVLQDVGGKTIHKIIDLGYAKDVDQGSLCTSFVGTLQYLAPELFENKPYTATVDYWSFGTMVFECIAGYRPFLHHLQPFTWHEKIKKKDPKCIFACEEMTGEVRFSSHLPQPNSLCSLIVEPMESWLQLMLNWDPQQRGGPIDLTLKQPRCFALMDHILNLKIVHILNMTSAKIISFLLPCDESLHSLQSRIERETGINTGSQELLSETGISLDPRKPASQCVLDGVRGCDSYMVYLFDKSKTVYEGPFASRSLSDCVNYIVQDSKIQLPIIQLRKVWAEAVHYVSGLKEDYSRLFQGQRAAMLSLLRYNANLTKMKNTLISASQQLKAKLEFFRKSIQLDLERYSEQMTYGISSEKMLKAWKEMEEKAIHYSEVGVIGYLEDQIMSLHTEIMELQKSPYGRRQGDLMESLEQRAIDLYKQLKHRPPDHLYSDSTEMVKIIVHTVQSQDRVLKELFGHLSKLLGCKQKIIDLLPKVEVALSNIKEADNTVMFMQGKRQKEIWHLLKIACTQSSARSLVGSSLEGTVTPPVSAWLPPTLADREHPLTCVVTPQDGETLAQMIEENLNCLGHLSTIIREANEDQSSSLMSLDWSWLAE

[19] = tested on: Peritoneal macrophage cell; test: Antiinflammatory activity in C57bl/6 mouse peritoneal macrophages assessed as reduction in LPS-induced TNF-alpha production at >=1 uM treated for 30 mins prior to LPS challenge measured after 6 hrs by ELISA; type: functional, cell-based

Row | SMILES | inhibition (RAW264.7 [1]) | fold change (FC) (RAW264.7 [2]) | fold change (FC) (RAW264.7 [3]) | inhibition [4] | inhibition [5] | Activity (RAW264.7 [6]) | Activity [7] | IC50 (Acetylcholinesterase) [nM] | IC50 (Cholinesterase) [nM] | inhibition [8] | inhibition [9] | inhibition (RAW264.7 [10]) | fold change (FC) (RAW264.7 [11]) | fold change (FC) (RAW264.7 [12]) | further results
1 | CCN(C)C(=O)Oc1ccc2c(c1)NCC2CCCN.Cl (stereo not given) | Active | 10 | 100 | Active | Active | Non-toxic | Non-toxic | 36000 | 4700 |  |  |  |  |  | 
2 | CCN(C)C(=O)Oc1cccc2c1CCN2CCCN(C)C.Cl | Active | 10 | 100 |  |  | Non-toxic | Non-toxic | 3700 | 900 | Active | Active |  |  |  | 
3 | CCN(C)C(=O)Oc1cccc2c1C(CCCN)CN2.Cl (stereo not given) | Active | 10 | 100 | Active | Active | Non-toxic | Non-toxic | 1800 | 1200 |  |  |  |  |  | 
4 | CCN(C)C(=O)Oc1cccc2c1C(CCN(C)C)CN2.Cl (stereo not given) |  |  |  |  |  | Non-toxic | Non-toxic | 1300 | 310 | Active | Active | Active | 10 | 100 | 
5 | CCN(C)C(=O)Oc1ccc2c(c1)NCC2CCN(C)C.Cl (stereo not given) | Active | 10 | 100 |  |  | Non-toxic | Non-toxic | 21300 | 2200 | Active | Active |  |  |  | 
6 | CCN(C)C(=O)Oc1ccc2c(c1)N(CCCN(C)C)CC2.Cl | Active | 10 | 100 |  |  | Non-toxic | Non-toxic | 48000 | 4270 | Active | Active |  |  |  | 
7 | CCN(C)C(=O)Oc1ccc2c(c1)NCC2CCC(=O)OC.Cl (stereo not given) |  |  |  | Active |  | Non-toxic | Non-toxic |  | 3900 |  |  | Active | 10 | 100 | inhibition [13]: Active
8 | CCN(C)C(=O)Oc1cccc2c1CCN2CCC(=O)OC.Cl |  |  |  |  |  | Non-toxic | Non-toxic |  | 700 |  | Active | Active | 10 | 100 | inhibition [14]: Active
9 | CCN(C)C(=O)Oc1cccc2c1C(CCN)CN2.Cl.Cl (stereo not given) |  |  |  | Active | Active | Non-toxic | Non-toxic |  | 200 |  |  | Active | 10 | 100 | 
10 | CCN(C)C(=O)Oc1cccc2c1C(CCC(=O)OC)CN2.Cl (stereo not given) |  |  |  | Active | Active | Non-toxic | Non-toxic |  | 300 |  |  | Active | 10 | 100 | inhibition [15]: Active; inhibition (Mus musculus [16]): inactive; inhibition (Mus musculus [17]): inactive; inhibition [18]: Active
11 | CCN(C)C(=O)Oc1ccc2c(c1)N(CCC(=O)OC)CC2.Cl |  |  |  |  |  | Non-toxic | Non-toxic |  | 6780 |  | Active |  |  |  | inhibition [19]: Active
